For test [1], the target named is T1, TRX-m4 (Arabidopsis thaliana, UniProt Q9SEU6).
T1 construct: gene At3g15360; recombinant His-tagged, without transit peptide, E. coli NiCo21(DE3)
T1 sequence (Q9SEU6 83-193): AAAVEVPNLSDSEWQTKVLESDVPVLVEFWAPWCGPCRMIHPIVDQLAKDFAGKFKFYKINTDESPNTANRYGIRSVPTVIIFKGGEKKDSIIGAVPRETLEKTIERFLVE
In words: intrinsic tryptophan fluorescence quenching. It counts as binding. Conditions: covalent; 15 uM reduced protein, 150 uM OPDA, 3 h, RT, 50 mM KPi pH 7.2.

Another test addresses T2, TRX-h3 (Arabidopsis thaliana, UniProt Q42403).
T2 construct: gene TRX3; recombinant His-tagged, E. coli NiCo21(DE3); cytosolic, no transit peptide
T2 sequence (Q42403 1-118): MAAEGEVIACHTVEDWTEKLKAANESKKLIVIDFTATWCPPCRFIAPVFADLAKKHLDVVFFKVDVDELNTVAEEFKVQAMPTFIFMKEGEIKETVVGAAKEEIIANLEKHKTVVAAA
In words: insulin reduction assay (turbidity, A650). It counts as biochemical. Conditions: covalent; 20 uM TRX pre-incubated with 80 uM OPDA, RT; assay pH 7.2, 1 mM DTT.

For test [2], the target named is T3, TRX-f1 (Arabidopsis thaliana, UniProt Q9XFH8).
T3 construct: gene At3g02730; recombinant His-tagged, without transit peptide, E. coli NiCo21(DE3)
T3 sequence (Q9XFH8 58-178): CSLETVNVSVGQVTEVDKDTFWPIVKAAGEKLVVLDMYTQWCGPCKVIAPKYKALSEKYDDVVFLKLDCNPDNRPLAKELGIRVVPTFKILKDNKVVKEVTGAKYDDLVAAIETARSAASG
The test can be described thus: insulin reduction assay (turbidity, A650). Type of test: biochemical. Conditions: covalent; 20 uM TRX pre-incubated with 80 uM OPDA, RT; assay pH 7.2, 1 mM DTT.

In test [3] the target is T3, TRX-f1. The test can be described thus: intrinsic tryptophan fluorescence quenching. Conditions: covalent; 15 uM reduced protein, 150 uM OPDA, 3 h, RT, 50 mM KPi pH 7.2. It counts as binding.
The target of test [4] is T1, TRX-m4. In words: insulin reduction assay (turbidity, A650). Conditions: covalent; 20 uM TRX pre-incubated with 80 uM OPDA, RT; assay pH 7.2, 1 mM DTT. It counts as biochemical.

Molecules are shown by their SMILES.

This is an account of results in PMC13278354, “The competitive interplay of 12‐oxophytodienoic acid (OPDA), protein thiols, and glutathione” (The Febs Journal, 2026).

For `CC/C=C\C[C@@H]1C(=O)C=C[C@@H]1CCCCCCCC(=O)O` [OPDA], the “change of maximal fluorescence intensity” value on TRX-m4 [1] is listed as “–16.3 relative units”; at TRX-f1 [3], “–14.5 relative units”. The residual activity (in general, the activity still measured, relative to the control) at TRX-h3 turned out to be 47%; on TRX-f1 [2], 67%; on TRX-m4 [4], 71%.
